# What was measured:
# [1] = octanol/water; cited from earlier work
# [2] = stability under ethylene oxide sterilization, heating and aging; reaction with paclitaxel; settings: for reaction with paclitaxel: ethylene oxide sterilization, heating, aging
# [3] = drug absorption by tissue after brief balloon deployment; type: in vivo; settings: formulated with paclitaxel; 0.2-2 minutes of deployment
# Source text: Some of the surfactants described herein are very stable under heating. They survive an ethylene oxide sterilization process.
# When the chemical compounds described herein are formulated with paclitaxel, a top coat layer may be advantageous in order to prevent premature drug loss during the device delivery process before deployment at the target site, since hydrophilic small molecules sometimes release drug too easily. The chemical compounds herein rapidly elute drug off the balloon during deployment at the target site.
# Mixtures or combinations of a surfactant and a water-soluble small molecule confer the advantages of both additives. The water insoluble drug often has a poor compatibility with highly water-soluble chemical compounds, and the surfactant improves compatibility. […] The surfactant reduces drug loss during transit to a target site. The water-soluble chemical compound improves the release of drug off the balloon and absorption of the drug in the tissue.
# [4] = cited from earlier work
# protein = settings: cited from earlier work
# albumin = albumin (Homo sapiens, UniProt P02768); settings: share of protein binding; cited from earlier work
# Sequence of albumin (P02768 25-609): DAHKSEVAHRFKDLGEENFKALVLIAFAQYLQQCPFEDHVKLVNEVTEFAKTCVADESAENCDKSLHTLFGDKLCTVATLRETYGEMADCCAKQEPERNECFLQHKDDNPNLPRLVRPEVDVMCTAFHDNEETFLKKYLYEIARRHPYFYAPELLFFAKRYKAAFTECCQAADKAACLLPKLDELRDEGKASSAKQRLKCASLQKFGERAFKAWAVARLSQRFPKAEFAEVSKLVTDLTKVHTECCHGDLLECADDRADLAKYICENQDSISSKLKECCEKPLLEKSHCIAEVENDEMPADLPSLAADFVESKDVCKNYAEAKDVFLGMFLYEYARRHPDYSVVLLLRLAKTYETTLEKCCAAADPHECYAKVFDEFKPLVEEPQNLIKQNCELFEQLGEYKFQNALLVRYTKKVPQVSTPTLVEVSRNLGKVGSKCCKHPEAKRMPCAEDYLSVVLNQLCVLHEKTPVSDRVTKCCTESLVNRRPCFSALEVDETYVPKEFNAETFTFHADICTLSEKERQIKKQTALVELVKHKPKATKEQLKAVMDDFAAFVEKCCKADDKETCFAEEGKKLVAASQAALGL
molecule,measurement,setting,value
"COc1ccc(O)c(C(C)(C)C)c1 [Butylated hydroxyanisole (BHA), Butylated hydroxyanisole]",log P,[1],1.31
O=C1O[C@H]([C@@H](O)CO)C(O)=C1O [ascorbic acid],reaction with paclitaxel,[2],reacted with paclitaxel
O=C(O)c1ccccc1 [benzoic acid],reaction with paclitaxel,[2],reacted with paclitaxel
same,"stability under ethylene oxide sterilization, heating, and aging process",[2]; experimentally,not stable
OCCNCCO [diethanolamine],survival of ethylene oxide sterilization process,[2],do not necessarily survive
same,reaction with paclitaxel,[2],reacted with paclitaxel
O=C1O[C@H](CO)[C@@H](O)[C@H](O)[C@H]1O [gluconolactone],drug absorption by tissue / drug levels in tissue,[3],unexpectedly high
O=C(O)/C=C\C(=O)O [maleic acids],water and ethanol solubility,[4]; in words,very high
NC(=O)c1cccnc1 [niacinamide],water and ethanol solubility,[4]; in words,very high
"CC(=O)O[C@H]1C(=O)[C@@]2(C)[C@H]([C@H](OC(=O)c3ccccc3)[C@]3(O)C[C@H](OC(=O)[C@H](O)[C@@H](NC(=O)c4ccccc4)c4ccccc4)C(C)=C1C3(C)C)[C@]1(OC(C)=O)CO[C@@H]1C[C@@H]2O [paclitaxel, reference compound]",increase of solubility in PBS with the addition of BSA,"[4]; PBS, BSA added",over 20 fold
CO[C@H]1C[C@@H]2CC[C@@H](C)[C@@](O)(O2)C(=O)C(=O)N2CCCC[C@H]2C(=O)O[C@H]([C@H](C)C[C@@H]2CC[C@@H](O)[C@H](OC)C2)CC(=O)[C@H](C)/C=C(\C)[C@@H](O)[C@@H](OC)C(=O)[C@H](C)C[C@H](C)/C=C/C=C/C=C/1C [rapamycin],protein bound,protein,92%
same,protein bound primarily to albumin,albumin,97%
O=C1O[C@H](CO)[C@@H](O)[C@H]1O [ribonic acid lactone],drug absorption by tissue / drug levels in tissue,[3],unexpectedly high
Cc1ncc(C[n+]2csc(CCO)c2C)c(N)n1 [thiamine],water and ethanol solubility,[4]; in words,very high
PEG-20 sorbitan monolaurate [Tween 20],log P,[1],about 3.0
Sudan Red,solubility in aqueous solvent,[4]; in words,insoluble

# — patent US20220176084A1, “MEDICAL DEVICE WITH DRUG-ELUTING COATING ON MODIFIED DEVICE SURFACE” (Bard Peripheral Vascular, Inc., priority 2019, published 2022)
